BigSolDB 2.1

CN1CCOC(c2ccccc2)c2ccccc2C1.Cl (stereo not drawn)
solubility (mole fraction)
Conditions	in acetone	in ethanol	in isobutanol	in isopropanol	in methanol	in n-butanol	in n-propanol	in water
273.15 K	7.2e-05	0.00136	0.000415	0.000136	0.00515	0.000205	0.000291	0.000951
278.15 K	8.7e-05	0.00163	0.000524	0.000167	0.00566	0.000245	0.000328	0.00106
283.15 K	0.000107	0.00198	0.000635	0.000206	0.00632	0.000287	0.000387	0.00124
288.15 K	0.000128	0.00247	0.000797	0.000251	0.00692	0.000369	0.000495	0.00144
293.15 K	0.000151	0.0029	0.000955	0.00032	0.00764	0.000463	0.000652	0.00167
298.15 K	0.000182	0.00337	0.00116	0.000407	0.00856	0.000605	0.000836	0.00199
303.15 K	0.000215	0.00402	0.00144	0.000494	0.00951	0.000776	0.00106	0.00234
308.15 K	0.000265	0.00473	0.00175	0.000608	0.0105	0.000986	0.00134	0.00273
313.15 K	0.000312	0.00559	0.00214	0.000752	0.0115	0.00125	0.0017	0.00317
318.15 K	0.000373	0.00654	0.0026	0.000935	0.0128	0.00159	0.00213	0.00369
323.15 K	0.000445	0.00795	0.00321	0.00114	0.0143	0.00198	0.00267	0.00426
